Source: ChEMBL document CHEMBL4196070, “Development of Piperazinediones as dual inhibitor for treatment of Alzheimer's disease” (Eur J Med Chem, 2018)

Assays:
Cholinesterase = Cholinesterase (Equus caballus, UniProt P81908); assay: Inhibition of equine serum BuChE using butyrylthiocholine iodide as substrate preincubated for 30 mins followed by substrate addition and measured for 20 mins at 1 min interval by Ellman's method
[1] = Permeability of the compound at 25 ug/ml after 18 hrs by PAMPA-BBB assay; assay type: ADME; settings: read-out: permeability
Acetylcholinesterase [2] = molecular target: T1, Acetylcholinesterase (Electrophorus electricus, UniProt O42275); assay: Inhibition of electric eel AChE using acetylthiocholine iodide as substrate preincubated for 30 mins followed by substrate addition and measured for 20 mins at 1 min interval by Ellman's method
T1 sequence (O42275 whole entry): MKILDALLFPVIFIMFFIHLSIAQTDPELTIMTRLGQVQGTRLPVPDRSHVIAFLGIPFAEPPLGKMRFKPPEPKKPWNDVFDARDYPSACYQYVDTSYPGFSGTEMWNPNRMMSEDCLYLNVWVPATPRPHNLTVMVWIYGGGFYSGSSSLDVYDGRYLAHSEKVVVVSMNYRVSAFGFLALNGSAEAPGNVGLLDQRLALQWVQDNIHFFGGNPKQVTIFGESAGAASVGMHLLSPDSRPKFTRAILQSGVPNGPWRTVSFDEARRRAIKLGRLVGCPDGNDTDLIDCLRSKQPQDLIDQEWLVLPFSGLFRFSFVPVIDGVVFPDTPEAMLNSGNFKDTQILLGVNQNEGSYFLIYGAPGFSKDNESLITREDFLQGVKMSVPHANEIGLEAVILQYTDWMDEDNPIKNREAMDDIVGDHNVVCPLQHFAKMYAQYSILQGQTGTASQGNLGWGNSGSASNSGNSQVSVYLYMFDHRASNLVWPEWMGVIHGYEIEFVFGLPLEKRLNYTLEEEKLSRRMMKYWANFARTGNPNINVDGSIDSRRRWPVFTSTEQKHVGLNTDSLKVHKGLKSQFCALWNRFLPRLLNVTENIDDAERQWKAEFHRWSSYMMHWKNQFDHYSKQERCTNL

[3] = molecular target: T2, 72 kDa type IV collagenase (Homo sapiens, UniProt P08253); assay: Inhibition of human MMP2 using Mca-Pro-Leu-Gly-Leu-Dpa-Ala-Arg-NH as substrate preincubated for 60 mins followed by substrate addition by fluorescence analysis
T2 sequence (P08253 whole entry): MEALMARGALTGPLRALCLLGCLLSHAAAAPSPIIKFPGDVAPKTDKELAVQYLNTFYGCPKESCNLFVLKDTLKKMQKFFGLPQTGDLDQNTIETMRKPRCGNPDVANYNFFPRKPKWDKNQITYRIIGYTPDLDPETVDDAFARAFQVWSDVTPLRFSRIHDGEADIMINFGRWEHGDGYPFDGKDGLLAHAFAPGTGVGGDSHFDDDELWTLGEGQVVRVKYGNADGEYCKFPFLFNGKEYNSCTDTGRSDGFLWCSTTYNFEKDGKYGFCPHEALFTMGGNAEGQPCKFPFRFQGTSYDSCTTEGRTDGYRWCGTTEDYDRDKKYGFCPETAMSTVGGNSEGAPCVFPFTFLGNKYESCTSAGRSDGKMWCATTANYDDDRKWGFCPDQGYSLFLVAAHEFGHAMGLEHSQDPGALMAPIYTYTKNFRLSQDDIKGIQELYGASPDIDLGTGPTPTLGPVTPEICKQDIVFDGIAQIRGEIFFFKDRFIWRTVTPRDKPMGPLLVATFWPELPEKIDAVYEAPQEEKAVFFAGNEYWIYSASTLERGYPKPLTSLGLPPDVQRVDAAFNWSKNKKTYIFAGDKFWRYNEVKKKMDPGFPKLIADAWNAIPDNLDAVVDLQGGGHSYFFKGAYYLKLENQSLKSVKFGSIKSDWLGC

[4] = Toxicity in Wistar rat measured for 72 hrs; assay type: organism-based; settings: in vivo
Mus musculus = assay: Effect on locomotive behavior in Swiss albino mouse at 5 to 20 mg/kg, ip administered once daily for 7 days prior to 4 hrs of training and measured after 5 mins by Y-maze test; assay type: ADME, organism-based; settings: in vivo
Rattus norvegicus = assay: Toxicity in Wistar rat assessed as mortality at 300 mg/kg measured for 72 hrs; assay type: organism-based; settings: in vivo
[5] = Neuroprotective activity against tetracycline removal-induced cytotoxicity in human MC65 cells assessed as cell viability at 70 uM after 12 hrs by MTT assay relative to control; assay type: functional; settings: MC65, 12 h, read-out: Activity
[6] = molecular target: T2, 72 kDa type IV collagenase; assay: Competitive inhibition of human MMP2 using Mca-Pro-Leu-Gly-Leu-Dpa-Ala-Arg-NH as substrate preincubated for 60 mins followed by substrate addition by secondary plot analysis
Acetylcholinesterase [7] = molecular target: T1, Acetylcholinesterase; assay: Non-competitive inhibition of electric eel AChE using acetylthiocholine iodide as substrate preincubated for 30 mins followed by substrate addition by Dixon plot analysis

Cholinesterase, sequence (P81908 whole entry): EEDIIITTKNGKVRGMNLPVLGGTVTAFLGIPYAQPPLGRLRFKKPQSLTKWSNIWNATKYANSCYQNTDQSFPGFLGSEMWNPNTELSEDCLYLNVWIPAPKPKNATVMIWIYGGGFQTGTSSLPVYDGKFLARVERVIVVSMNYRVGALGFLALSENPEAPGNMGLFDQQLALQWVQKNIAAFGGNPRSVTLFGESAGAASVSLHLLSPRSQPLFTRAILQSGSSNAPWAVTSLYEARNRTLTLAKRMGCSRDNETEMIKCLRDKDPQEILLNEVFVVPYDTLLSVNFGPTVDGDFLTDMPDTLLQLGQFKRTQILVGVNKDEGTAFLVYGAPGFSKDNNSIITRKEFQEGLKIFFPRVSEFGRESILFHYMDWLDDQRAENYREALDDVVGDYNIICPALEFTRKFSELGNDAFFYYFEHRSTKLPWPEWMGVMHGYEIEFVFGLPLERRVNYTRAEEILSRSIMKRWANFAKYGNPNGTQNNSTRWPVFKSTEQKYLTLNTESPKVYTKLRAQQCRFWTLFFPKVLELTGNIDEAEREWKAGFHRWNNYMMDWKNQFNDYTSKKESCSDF

Row | Compound | IC50 (Cholinesterase) | Papp at 18 h, 25 ug/ml [1] | IC50 (Acetylcholinesterase [2]) | IC50 [3] | LD50 at 72 h [4] | Activity (Mus musculus) | Activity (Rattus norvegicus) | viability at 70 µM [5] | Ki [6] | Ki (Acetylcholinesterase [7])
1 | O=C1CN(S(=O)(=O)c2ccc(F)cc2)C(=O)CN1S(=O)(=O)c1ccc(F)cc1 | 186 nM | 10.3 ×10⁻⁶ cm/s | 78.3 nM | 55.1 nM | – | – | – | – | – | –
2 | CCCS(=O)(=O)N1CC(=O)N(S(=O)(=O)CCC)CC1=O | > 200 nM | 0.89 ×10⁻⁶ cm/s | > 200 nM | > 1000 nM | – | – | – | – | – | –
3 | O=C1CN(S(=O)(=O)c2ccc(Cl)cc2)C(=O)CN1S(=O)(=O)c1ccc(Cl)cc1 | 180 nM | 6.43 ×10⁻⁶ cm/s | 61.6 nM | 49.7 nM | – | – | – | – | – | –
4 | O=C1C(Cc2ccccc2)N(S(=O)(=O)c2cccc(O)c2)C(=O)C(Cc2ccccc2)N1S(=O)(=O)c1cccc(O)c1 (centres undefined) | > 200 nM | 6.36 ×10⁻⁶ cm/s | 69.8 nM | 83 nM | – | – | – | – | – | –
5 | CCCCS(=O)(=O)N1CC(=O)N(S(=O)(=O)CCCC)CC1=O | > 200 nM | 1.06 ×10⁻⁶ cm/s | > 200 nM | > 1000 nM | – | – | – | – | – | –
6 | O=C1C(Cc2ccccc2)N(S(=O)(=O)c2ccc(Cl)cc2)C(=O)C(Cc2ccccc2)N1S(=O)(=O)c1ccc(Cl)cc1 (centres undefined) | 158 nM | 12.3 ×10⁻⁶ cm/s | 32.5 nM | 36.8 nM | 200 mg/kg | Non-Toxic | Toxic | – | – | –
7 | Cc1ccc(S(=O)(=O)N2C(=O)C(c3ccccc3)N(S(=O)(=O)c3ccc(C)cc3)C(=O)C2c2ccccc2)cc1 (centres undefined) | > 200 nM | 11.3 ×10⁻⁶ cm/s | 76.4 nM | 62.9 nM | – | – | – | – | – | –
8 | COc1ccc(S(=O)(=O)N2CC(=O)N(S(=O)(=O)c3ccc(OC)cc3)CC2=O)cc1 | > 200 nM | 6.46 ×10⁻⁶ cm/s | 91.5 nM | 75.3 nM | – | – | – | – | – | –
9 | O=C1C(c2ccccc2)N(S(=O)(=O)c2ccc(O)cc2)C(=O)C(c2ccccc2)N1S(=O)(=O)c1ccc(O)cc1 (centres undefined) | > 200 nM | 6.84 ×10⁻⁶ cm/s | 84.2 nM | 57.2 nM | – | – | – | – | – | –
10 | O=C1C(Cc2ccccc2)N(S(=O)(=O)c2ccc(O)cc2)C(=O)C(Cc2ccccc2)N1S(=O)(=O)c1ccc(O)cc1 (centres undefined) | 199 nM | 5.68 ×10⁻⁶ cm/s | 59.5 nM | 72 nM | – | – | – | – | – | –
11 | O=C1C(c2ccccc2)N(S(=O)(=O)c2ccc(Cl)cc2)C(=O)C(c2ccccc2)N1S(=O)(=O)c1ccc(Cl)cc1 (centres undefined) | 161 nM | 7.38 ×10⁻⁶ cm/s | 28.6 nM | 19.6 nM | 200 mg/kg | Non-Toxic | Toxic | 99.4% | 20 nM | 7 nM
12 | O=C1C(Cc2ccccc2)N(S(=O)(=O)c2ccc(Br)cc2)C(=O)C(Cc2ccccc2)N1S(=O)(=O)c1ccc(Br)cc1 (centres undefined) | 181 nM | 7.29 ×10⁻⁶ cm/s | 57 nM | 38.7 nM | – | – | – | – | – | –
13 | O=C1CN(S(=O)(=O)c2cccc(Cl)c2)C(=O)CN1S(=O)(=O)c1cccc(Cl)c1 | 197 nM | 8.37 ×10⁻⁶ cm/s | 66.7 nM | 58 nM | – | – | – | – | – | –
14 | O=C1C(Cc2ccccc2)N(S(=O)(=O)c2ccc([N+](=O)[O-])cc2)C(=O)C(Cc2ccccc2)N1S(=O)(=O)c1ccc([N+](=O)[O-])cc1 (centres undefined) | 163 nM | 4.49 ×10⁻⁶ cm/s | 57.4 nM | 53.8 nM | – | – | – | – | – | –
15 | O=C1C(c2ccccc2)N(S(=O)(=O)c2ccc(Br)cc2)C(=O)C(c2ccccc2)N1S(=O)(=O)c1ccc(Br)cc1 (centres undefined) | 183 nM | 8.31 ×10⁻⁶ cm/s | 50.6 nM | 32.7 nM | – | – | – | – | – | –
16 | O=C1C(c2ccccc2)N(S(=O)(=O)c2ccc([N+](=O)[O-])cc2)C(=O)C(c2ccccc2)N1S(=O)(=O)c1ccc([N+](=O)[O-])cc1 (centres undefined) | 176 nM | 4.63 ×10⁻⁶ cm/s | 60.8 nM | 33.5 nM | – | – | – | – | – | –
17 | O=C1CN(S(=O)(=O)c2ccccc2)C(=O)CN1S(=O)(=O)c1ccccc1 | > 200 nM | – | 98.5 nM | 82.2 nM | – | – | – | – | – | –
18 | Nc1ccc(S(=O)(=O)N2CC(=O)N(S(=O)(=O)c3ccc(N)cc3)CC2=O)cc1 | > 200 nM | 6.1 ×10⁻⁶ cm/s | 86.3 nM | 53.1 nM | – | – | – | – | – | –
19 | O=C1C(c2ccccc2)N(S(=O)(=O)c2cccc(Br)c2)C(=O)C(c2ccccc2)N1S(=O)(=O)c1cccc(Br)c1 (centres undefined) | 193 nM | 9.45 ×10⁻⁶ cm/s | 76.6 nM | 54.7 nM | – | – | – | – | – | –
20 | Nc1ccc(S(=O)(=O)N2C(=O)C(c3ccccc3)N(S(=O)(=O)c3ccc(N)cc3)C(=O)C2c2ccccc2)cc1 (centres undefined) | > 200 nM | 5.53 ×10⁻⁶ cm/s | 91.3 nM | 50.6 nM | – | – | – | – | – | –
21 | Cc1ccc(S(=O)(=O)N2CC(=O)N(S(=O)(=O)c3ccc(C)cc3)CC2=O)cc1 | > 200 nM | 10.4 ×10⁻⁶ cm/s | 118 nM | 86.7 nM | – | – | – | – | – | –
22 | O=C1C(Cc2ccccc2)N(S(=O)(=O)c2cccc(Br)c2)C(=O)C(Cc2ccccc2)N1S(=O)(=O)c1cccc(Br)c1 (centres undefined) | 191 nM | 8.06 ×10⁻⁶ cm/s | 76.7 nM | 58.1 nM | – | – | – | – | – | –
23 | O=C1CN(S(=O)(=O)c2ccc(Br)cc2)C(=O)CN1S(=O)(=O)c1ccc(Br)cc1 | 191 nM | 8.87 ×10⁻⁶ cm/s | 81.8 nM | 54.7 nM | – | – | – | – | – | –
24 | Cc1cccc(S(=O)(=O)N2C(=O)C(c3ccccc3)N(S(=O)(=O)c3cccc(C)c3)C(=O)C2c2ccccc2)c1 (centres undefined) | > 200 nM | 11.8 ×10⁻⁶ cm/s | 83.9 nM | 73.8 nM | – | – | – | – | – | –
25 | Cc1nnc2n1-c1ccc(Cl)cc1C(c1ccccc1)=NC2 [ALPRAZOLAM] | – | 4.6 to 5.4 ×10⁻⁶ cm/s | – | – | – | – | – | – | – | –
26 | CN(C)CCCN1c2ccccc2Sc2ccc(Cl)cc21 [CHLORPROMAZINE] | – | 5.9 to 6.5 ×10⁻⁶ cm/s | – | – | – | – | – | – | – | –
27 | NCCc1ccc(O)c(O)c1 [DOPAMINE] | – | 0.17 to 0.2 ×10⁻⁶ cm/s | – | – | – | – | – | – | – | –
28 | CCn1cc(C(=O)O)c(=O)c2cc(F)c(N3CCNC(C)C3)c(F)c21 (centres undefined) [LOMEFLOXACIN] | – | 0.31 to 1.1 ×10⁻⁶ cm/s | – | – | – | – | – | – | – | –
29 | CC(=O)[C@H]1CC[C@H]2[C@@H]3CCC4=CC(=O)CC[C@]4(C)[C@H]3CC[C@]12C [PROGESTERONE] | – | 9.3 to 15.8 ×10⁻⁶ cm/s | – | – | – | – | – | – | – | –
